We go through 15 molecules from patent US5510338A, “Phosphonoalkylquinolin-2-ones as novel antagonists of non-NMDA ionotropic excitatory amino acid receptors” (priority 1994, dated 1996).

Where only a bound is given, the exact number is not on record here.

Assay [1] concerns the target KA receptors (KA-induced currents in rat brain mRNA-injected Xenopus oocytes). Briefly: Inhibition of KA-induced currents in rat brain mRNA-injected Xenopus oocytes. Conditions: for Potency to inhibit KA-induced currents, Ki: rat brain mRNA-injected Xenopus oocytes, voltage clamped at -60 to -70 mV, IC50 converted to Ki by Cheng-Prusoff equation. It counts as cell-based.
Method: Defolliculated oocytes obtained from Xenopus laevis females were injected with 30-75 ng of poly (A+) mRNA obtained from 21-day old male Sprague-Dawley rats. Oocytes were placed individually in 100 ml of antibiotic-supplemented modified Barthes solution (MBS, containing in mM: NaCl, 88; KCl 1.0; NaHCO3, 2.4 HEPES, 10; MgSO4 0.82; Ca(NO3)2, 0.33) in 96-well sterile plates and cultured for 48-120 hours prior to experimentation. Oocytes were inspected every 24 hours at which time the bathing solution is replaced with fresh MBS.
For electrophysiological studies, oocytes were positioned in a small recording chamber (500 ml) and superfused with antibiotic free MBS supplemented with CaCl2 (final concentration=1.4 mM). Oocytes are impaled with a single glass microelectrode, voltage clamped at -60 to -70 mV, and perfused by gravity feed at a rate of 3-5 ml/min at room temperature. […] Antagonists are coperfused with agonists.
Potencies to inhibit kainic acid-, AMPA- and NMDA/glycine-induced currents are determined from concentration-response curves. IC50 values are converted to Ki values for comparison purposes using the Cheng-Prusoff equation.

Assay [2] concerns the target GLU. Briefly: Inhibition of EAA receptor ligand binding, GLU. Conditions: read-out: Receptor Potency (Ki), GLU.
The test system of assay [3] is CNQX-labeled non-NMDA receptors. Briefly: Inhibition of EAA receptor ligand binding, CNQX (CNQX-labeled non-NMDA receptors). The conditions noted are these: for selectivity for NMDA vs non-NMDA receptors: in words, from Table II data; for Ki: inhibition of EAA receptor ligand binding, CNQX-labeled non-NMDA receptors, read-out: Receptor Potency (Ki), CNOX.
Assay [4] has as its target T1, Glycine (strychnine insensitive glycine binding) (Rattus norvegicus, UniProt P35439).
T1 construct: from tissue
Briefly: Strychnine insensitive glycine binding. Conditions: read-out: Receptor Potency (Ki), Glycine. The procedure:
Binding assays for the displacement of ^3 H!AMPA were performed as described by Murphy et al. (Neurochemical Reseach. 12: 775-781 1987!). KA binding assays were performed as described by London et al (Molecular Pharmacology. 15:492-505 1979!); strychnine insensitive glycine binding was evaluated by the method of Snell et al (European Journal of Pharmacology. 156: 105-110 1988!.

The subject of assay [5] is kainate receptors. The conditions noted are these: U.S. Pat. No. 4,657,899, Table I on column 13; cited from earlier work.
In assay [6] the test system is NMDA. The conditions noted are these: U.S. Pat. No. 4,657,899; cited from earlier work.

Broadly, the Ki is a dissociation constant, usually derived from enzyme kinetics or from competition with a known ligand. Take `O=c1cc(CP(=O)(O)O)c2ccc(Cl)cc2[nH]1` [Example 2, 7-Chloro-4-phosphonomethylquinolin-2-one]: the “Potency to inhibit KA-induced currents, Ki” value in assay [1] is 32 µM. Also, the results for the Ki in assay [2], in assay [3] and in assay [4] were 30 µM, 59 µM and 10 µM, respectively. Besides, the “selectivity for NMDA vs non-NMDA receptors” value in assay [3] is listed as “not very selective”.
In the case of `NC(Cc1ccccc1CP(=O)(O)O)C(=O)O` (stereo not drawn) [2-amino-3-2-phosphonomethylphenyl!propanoic acid], the “binding affinity for kainate receptors (in words)” value (“binding affinity” for short) in assay [5] is listed as “very low binding affinity”. The “NMDA antagonist activity (in words)” value in assay [6] is “antagonists of NMDA”.
Take `O=c1cc(CP(=O)(O)O)c2c([N+](=O)[O-])c(Cl)ccc2[nH]1` [Example 26, 6-Chloro-5-nitro-4-phosphonomethylquinolin-2-one]: the “Potency to inhibit KA-induced currents, Ki” value in assay [1] is > 300 µM. Besides, the Ki in assay [2], in assay [3] and in assay [4] was > 1000 µM throughout.
As for `CCOP(=O)(Cc1cc(=O)[nH]c2cc(Cl)cc(Cl)c12)OCC` [Example 21a, 5,7-Dichloro-4-(diethoxyphosphinyl)methylquinolin-2-one], the “activity in words of related compounds tested” value in assay [1] is “essentially inactive”. The “Potency to inhibit KA-induced currents, Ki” value in assay [1] was determined as 480 µM. In addition, the Ki in assay [3] is > 100 µM; in assay [4], 103 µM.
With `O=c1cc(CP(=O)(O)O)c2cc(Cl)c(Cl)cc2[nH]1` [Example 5, 6,7-Dichloro-4-phosphonomethylquinolin-2-one], the “Potency to inhibit KA-induced currents, Ki” value in assay [1] is 9.6 µM. Besides, the Ki in assay [2] is > 100 µM. Also, in assay [3], the “selectivity for NMDA vs non-NMDA receptors” value is recorded as “quite selective” and the Ki was found to be 15 µM.
On to `O=c1cc(P(=O)(O)O)c2ccc(Cl)cc2[nH]1` [Example 24, 7-Chloro-4-phosphonoquinolin-2-one], for which the “Potency to inhibit KA-induced currents, Ki” value in assay [1] is > 100 µM. The figures for the Ki in assay [2] and in assay [4] were > 300 µM and > 1000 µM, respectively.
`O=c1cc(CP(=O)(O)O)c2c(Cl)cc(Cl)cc2[nH]1` [Example 3, 5,7-Dichloro-4-phosphonomethylquinolin-2-one]: in assay [1], the “Potency to inhibit KA-induced currents, Ki” value came to 18.2 µM. The values for the Ki in assay [2], in assay [3] and in assay [4] were > 100 µM, 38 µM and 28 µM, respectively. Also, the “selectivity for NMDA vs non-NMDA receptors” value in assay [3] was “quite selective”.
Regarding `CCC(c1ccccc1CCCP(=O)(O)O)C(N)C(=O)O` (stereo not drawn) [2-amino-3-2-(3-phosphonopropyl) phenyl!pentanoic acid], in assay [5], the “binding affinity” value is recorded as “very low binding affinity”. The “NMDA antagonist activity (in words)” value in assay [6] is “antagonists of NMDA”.
In the case of `O=C(O)c1cc(CCP(=O)(O)O)c2ccc(Cl)cc2n1` [Example 22, 2-Carboxy-7-chloro-4-phosphonethylquinoline], the “Potency to inhibit KA-induced currents, Ki” value in assay [1] came out at 450 µM. In addition, the values for the Ki in assay [2], in assay [3] and in assay [4] were > 100 µM, 384 µM and > 1000 µM, respectively.
Consider `NC(CCCc1ccccc1CP(=O)(O)O)C(=O)O` (stereo not drawn) [2-amino-5-2-phosphonomethylphenyl!pentanoic acid], for which, in assay [5], the “binding affinity” value is listed as “very low binding affinity”. The “NMDA antagonist activity (in words)” value in assay [6] is reported as “antagonists of NMDA”.
On to `O=c1cc(CP(=O)(O)O)c2ccc(Cl)c([N+](=O)[O-])c2[nH]1` [Example 25, 7-Chloro-8-nitro-4-phosphonomethylquinolin-2-one], for which the Ki in assay [2] was > 1000 µM; in assay [3], 300 µM; in assay [4], > 1000 µM.
As for `NC(Cc1ccccc1CCP(=O)(O)O)C(=O)O` (stereo not drawn) [2-amino-3-2-(2-phosphonoethyl)phenyl!propanoic acid], in assay [5], the “binding affinity” value is “very low binding affinity”. Also, the “NMDA antagonist activity (in words)” value in assay [6] is given as “antagonists of NMDA”.
`O=c1cc(CP(=O)(O)O)c2ccc(I)cc2[nH]1` [Example 4, 7-Iodo-4-phosphonomethylquinolin-2-one]: the “Potency to inhibit KA-induced currents, Ki” value in assay [1] was 15.6 µM. The values for the Ki in assay [2], in assay [3] and in assay [4] were 35 µM, 26 µM and 29 µM, respectively. Besides, in assay [3], the “selectivity for NMDA vs non-NMDA receptors” value is “not very selective”.
As for `O=c1cc(CCP(=O)(O)O)c2ccc(Cl)cc2[nH]1` [Example 1, 7-Chloro-4-phosphonethylquinolin-2-one], the values for the Ki in assay [2], in assay [3] and in assay [4] were 600 µM, 91 µM and 231 µM, respectively.
Take `O=C(O)c1cc(CP(=O)(O)O)c2ccc(Cl)cc2n1` [Example 23, 2-Carboxy-7-chloro-4-phosphonomethylquinoline]: in assay [1], the “Potency to inhibit KA-induced currents, Ki” value was 129 µM. The Ki in assay [3] was 64 µM; in assay [4] it was 68 µM.
